Broadly, the EC50 is the concentration giving half of the maximal effect. Broadly, the IC50 is the midpoint of a concentration-inhibition curve. The low end stands for greater potency, the high end for weaker potency.

SMILES strings stand for the structures. Active and inactive are the calls of the source.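 How the source made its calls: active means compounds giving half or more protection of infected cells from virus-caused growth loss, again on retest; inactive means the rest.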 Where a SMILES comes first, the peptide text is derived from it. The star is where a group is joined. Fmoc = O=C(OCC1c2ccccc2-c2ccccc21)*; Boc = CC(C)(C)OC(=O)*

The experiment has as its system CEM cells HIV-1 protection, formazan growth assay. The experiment in a line: NCI AIDS Antiviral Assay. The following applies: for IC50: measured here: growth of uninfected CEM cells. The method in brief:
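CEM (human) cells, HIV-1 infected vs uninfected, 5-point dosing, formazan growth read-out. Retest threshold 50% protection.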

As to `CC[N+](C)(CC)CCNC(=O)C(O)(c1ccccc1)c1ccccc1`, the EC50 is over 200 µM and the IC50 is over 200 µM.

With `S=C1CCSc2c(ccc3ccccc23)N1`, the EC50 was over 200 µM and the IC50 worked out at 166 µM.

As for `c1ccc(-c2nnc(-c3nn(-c4ccccc4)c4nc5ccccc5nc34)o2)cc1`, the outcome was inactive.

In the case of `CCCCCC(/C=N/N)C(O)(C(F)(F)F)C(F)(F)F` (stereo unspecified), the EC50 was over 200 µM and the IC50 is 1.48 µM.

On to `COC(=O)/C(C#N)=C1\NC(=O)CC(c2ccccc2)C1C#N` (stereo unspecified), for which the EC50 is over 200 µM and the IC50 is 57.5 µM.

On to `CC1=NNC(=O)C1C1CC(c2c[nH]c3ccccc23)=NNC1=S` (stereo unspecified), for which the EC50 was over 100 µM and the IC50 was over 100 µM.

For `OC(CC(O)(C(F)(F)F)C(F)(F)F)c1ccc(C(O)CC(O)(C(F)(F)F)C(F)(F)F)cc1` (stereo unspecified), the EC50 was over 200 µM and the IC50 turned out to be 10.2 µM.

Regarding `O=Nc1c(-c2ccccc2)nc2ccccn12`, the EC50 was over 200 µM and the IC50 is 38.9 µM.

Take `CSC1=N/C(=C\c2ccccc2)C(=O)N1CN1CCOCC1`: the EC50 is over 200 µM and the IC50 came out at 87.1 µM.

Turning to `O=C1c2ccccc2C(Br)(Br)c2ccccc21`, the outcome was inactive.

On to `NC(CCSSCCC(N)C(=O)NCC(=O)O)C(=O)NCC(=O)O` (stereo unspecified), for which the EC50 is over 64.6 µM and the IC50 is over 64.6 µM.

As for `CC(C)(C)[Si](C)(C)OC1C(=O)C(CO)OC1n1ccc(=O)[nH]c1=O` (stereo unspecified), the EC50 is over 200 µM and the IC50 was over 200 µM.

On to `CCOC(=O)c1ccc(N=C2S/C(=C\C(=S)Nc3ccccc3)N(c3ccccc3)C2=Nc2ccc(C(=O)OCC)cc2)cc1`, for which the EC50 is over 200 µM and the IC50 is over 200 µM.

Take `O=[N+]([O-])c1ccccc1S(=O)(=O)c1ccccc1[N+](=O)[O-]`: the EC50 is 1.26 µM and the IC50 stood at 145 µM.

Take `CC(=O)N1CCc2[nH]c3ccccc3c2CC1`: the EC50 is over 575 µM and the IC50 is 234 µM.

In the case of `NCCN1CCCCCc2ccccc21`, the EC50 is over 200 µM and the IC50 was found to be 123 µM.

Take `NC(N)=NS(=O)(=O)c1ccc(NC(=O)c2ccc(Cl)c3c(Nc4ccc(S(=O)(=O)N=C(N)N)cc4)c4ccccc4nc23)cc1`: the EC50 is over 28.2 µM and the IC50 is over 28.2 µM.

For `C/C=C/C[P+](Cc1ccccc1)(c1ccccc1)c1ccccc1`, the EC50 was over 603 µM and the concentration for half-maximal inhibition (IC50) worked out at 4.17 µM.

As to `CCC[CH2][Sn]1([CH2]CCC)[O]N=Cc2ccccc2[O]1`, the EC50 is over 14.1 µM and the IC50 was found to be 0.437 µM.

`O=S(=O)(N=NC=C1c2ccccc2N(O)c2ccccc21)c1ccc(Cl)cc1`: the outcome was inactive.

In the case of `CCOC(=O)C1(C)CCC(C(=O)OC)C1=O` (stereo unspecified), the EC50 is over 794 µM and the IC50 stood at 52.5 µM.

In the case of `COC(=O)[C@H]1C2CC[C@@H]3C45C[C@@H](c6ccoc6)O[C@@H]4O[C@@H](O2)C31CCC5C` (stereo partly specified), the EC50 was over 95.5 µM and the IC50 is over 95.5 µM.

Turning to `Cc1ccc(C2=CSC3=NCCN23)cc1Cl`, the EC50 was over 200 µM and the IC50 was 93.3 µM.

As to `O=C(CC1(O)C(=O)Nc2c(Cl)cc(Cl)cc21)c1ccc2ccccc2c1` (stereo unspecified), the EC50 is over 49 µM and the IC50 is 20.4 µM.

With `CCC1=CCN(c2ccccn2)OC1c1ccc(OC)cc1` (stereo unspecified), the EC50 was over 63.1 µM and the IC50 amounted to 60.3 µM.

With `CCC[CH2][Sn]1([CH2]CCC)[O]C(c2ccccn2)S(=O)(=O)[O]1` (stereo unspecified), the EC50 is over 30.9 µM and the 50% inhibitory concentration (IC50) came to 0.178 µM.

Turning to `NC(Cc1ccc(S(=O)(=O)O)cc1)C(=O)NC(Cc1ccc(S(=O)(=O)O)cc1)C(=O)O` (stereo unspecified), the EC50 is over 200 µM and the IC50 was over 200 µM.

As to `COc1ccc(Nc2nc3cc(C(F)(F)F)ccc3nc2-c2ccccc2)cc1OC`, the EC50 was over 30.9 µM and the IC50 is over 30.9 µM.

In the case of `O=C(O)CCOCCCCCCCCCl`, the outcome was inactive.

Consider `C#CCN1CCC2=C(C1)c1c(O)cc(C(C)C(C)CCCCC)cc1OC2(C)C` (stereo unspecified), for which the EC50 was over 32.4 µM and the IC50 came to 14.8 µM.

`O=C1c2ccccc2CC1C1(O)C(=O)Nc2c(Cl)cc(Cl)cc21` (stereo unspecified): the EC50 was over 102 µM and the IC50 was over 102 µM.

As to `CC(=O)OCC1C(OC(C)=O)C(OC(C)=O)C(OC(C)=O)P1(=O)c1ccccc1` (stereo unspecified), the EC50 was over 589 µM and the IC50 stood at 537 µM.

As to `CCCCCCCCCCCCCCCCOP(=O)(O)OP(=O)(O)OCC1OC(n2cnc3c(N)ncnc32)C(O)C1O` (stereo unspecified), the EC50 was over 200 µM and the IC50 came to 120 µM.

For the compound `O=C1CCC2(c3ccc(F)cc3)Nc3ncccc3N12` (stereo unspecified), the EC50 was over 132 µM and the IC50 was over 132 µM.

`COc1cc(N=Nc2ccccc2)cc(/C=N\[N-]C(N)=S)c1[O-].COc1cc(N=Nc2ccccc2)cc(/C=N\[N-]C(N)=S)c1[O-].[Fe+4]`: the EC50 is over 26.3 µM and the IC50 was over 26.3 µM.

Regarding `O=c1cc2n(c(=O)[nH]1)C1OC(C(O)C1O)[C@H]2CCO` (stereo partly specified), the outcome was inactive.

As for `OCCCN(Cc1ccccc1)CC(O)c1ccc(OCc2ccccc2)c(OCc2ccccc2)c1` (stereo unspecified), the EC50 is over 200 µM and the concentration for half-maximal inhibition (IC50) is 9.55 µM.

In the case of `CC(=O)C(CN1CCCCC1)C(c1ccccc1)c1c(O)c2ccccc2oc1=O` (stereo unspecified), the EC50 was over 120 µM and the IC50 was 117 µM.

As for `COc1ccc(/C(C#N)=C/c2ccccc2OC)cc1`, the EC50 is over 200 µM and the IC50 turned out to be 11.5 µM.

With `CCOP(=O)(OCC)/C(C#N)=C\c1cccc2ccccc12`, the EC50 is over 83.2 µM and the IC50 was over 83.2 µM.

On to `COP(=O)(OC)C(C)(C)NC(=O)NC(F)(F)F`, for which the EC50 is over 200 µM and the IC50 is over 200 µM.

Turning to `Oc1ccc(Cl)cc1-c1cc(-c2ccccc2)nc(=S)[nH]1`, the EC50 is over 200 µM and the IC50 was 170 µM.

With `CC1C2CC(CC23OCC(CCl)O3)C1(C)C` (stereo unspecified), the EC50 is over 200 µM and the IC50 is over 200 µM.

In the case of `COC(=O)c1cnn2c1ccc1ccccc12`, the EC50 is over 200 µM and the IC50 came out at 29.5 µM.

Regarding `CNC(=O)CN(CC(=O)O)C(=O)NC`, the EC50 was over 1230 µM and the IC50 was over 1230 µM.

On to `COC(=O)C(=O)C1(CCC(C)=O)c2ccccc2-c2c(C)ccc(C)c21` (stereo unspecified), for which the result was inactive.

As to `O=C(NCCCCCCCCCCNC(=O)c1cc(O)c(O)c(O)c1)c1cc(O)c(O)c(O)c1`, the EC50 was over 100 µM and the IC50 was 9.12 µM.

For `COc1ccc(CC2(O)C3CC4CCC2C4C3)cc1` (stereo unspecified), the EC50 was over 200 µM and the IC50 is 87.1 µM.

Consider `C[C@]12CCC(=O)C(OC(=O)c3ccc([N+](=O)[O-])cc3)=C1CCC2=O`, for which the outcome was inactive.

On to `Cc1cnoc1NC1=CC(=O)C(=O)c2ccccc21`, for which the EC50 was over 200 µM and the concentration for half-maximal inhibition (IC50) turned out to be 26.3 µM.

As to `Cc1nnc(Sc2nc(C#N)c(C#N)nc2Sc2nnc(C)s2)s1`, the EC50 is over 200 µM and the IC50 is 8.13 µM.

For the compound `CC(=O)N1CCSC(C(=O)Nc2ccccc2)=C1C`, the EC50 is over 646 µM and the IC50 was over 646 µM.

`N#CCCC1C(C#N)C2(Cl)CC1(Cl)C(Cl)=C2Cl` (stereo unspecified): the EC50 is over 200 µM and the IC50 was 23.4 µM.

For the compound `CC(C)(C)OC(=O)NCCCCC(NC(=O)C(Cc1c[nH]c2ccccc12)NC(=O)OCC1c2ccccc2-c2ccccc21)C(=O)O` (stereo unspecified) (Fmoc-Trp-Lys(Boc)-OH; configuration not given here), the EC50 was over 200 µM and the IC50 amounted to 102 µM.

Turning to `COc1ccccc1NCc1nnc(CCCCCCCCc2nnc(CNc3ccccc3OC)o2)o1`, the EC50 is over 200 µM and the IC50 was over 200 µM.

For `CN(C)CCn1c(=O)c2ccc(NCCN3CCNCC3)c3c(=O)c4ccccc4n(c1=O)c23`, the EC50 is over 200 µM and the IC50 was determined as 0.0631 µM.

As for `OCCN1CCN(CC/C=C2/c3ccccc3Sc3ccc(Cl)cc32)CC1`, the EC50 is over 200 µM and the IC50 came to 7.41 µM.

Take `Cc1cccc(NC(=O)C(=O)C(C2OC(=O)c3ccccc32)[N+](=O)[O-])c1C` (stereo unspecified): the outcome was inactive.

For `COC(=O)[C@]1(C)CCC[C@]2(C)C3CC4OOC3(C=C4C(C)(C)O)CCC21` (stereo partly specified), the EC50 is over 251 µM and the IC50 is 38.9 µM.

Consider `CCOC(=O)C(C)(C(C)=O)c1nc(=S)[nH]c(=S)[nH]1` (stereo unspecified), for which the EC50 is over 200 µM and the IC50 is 95.5 µM.

On to `O=[N+]([O-])c1ccc(N2N=C(c3c(O)ccc4ccccc34)CC2c2ccc(Cl)cc2)c([N+](=O)[O-])c1` (stereo unspecified), for which the EC50 was over 200 µM and the IC50 was 16.6 µM.

For `OCC1NC(CC2OC(CO)C(O)C(O)C2O)C(O)C(O)C1O` (stereo unspecified), the EC50 was over 200 µM and the IC50 was over 200 µM.

Regarding `Clc1cc(Cl)cc(C2SCc3nc4ccccc4n32)c1` (stereo unspecified), the result was inactive.

On to `CCCCCCCCCN=C(N)CSSCC(N)=NCCCCCCCCC`, for which the EC50 was over 200 µM and the IC50 stood at 19.5 µM.

On to `O=C1CSC(c2c[nH]c3ccccc23)N1c1ccccc1[N+](=O)[O-]` (stereo unspecified), for which the EC50 is over 389 µM and the half-maximal inhibitory concentration (IC50) is over 389 µM.

For `CCOC(=O)C#CCCOC1CCCCO1` (stereo unspecified), the EC50 was over 138 µM and the IC50 was determined as 112 µM.

On to `CCOC(=O)/C=C/C(=O)O/C=C/[N+](=O)[O-]`, for which the EC50 is 182 µM and the IC50 was over 200 µM.

Consider `CN(CCSCC(N)C(=O)O)CCSCC(N)C(=O)O` (stereo unspecified), for which the EC50 is over 87.1 µM and the IC50 is over 87.1 µM.

Take `CC[C@@H]1C[C@H]2CC3c4[nH]c5ccc(O)cc5c4CCN(C2)C31`: the EC50 is over 372 µM and the IC50 was 93.3 µM.

Turning to `COCC(=O)OC1CCn2c1nc1c2C(=O)C(C)=C(NC(C)=O)C1=O` (stereo unspecified), the EC50 is over 200 µM and the 50% inhibitory concentration (IC50) came to 1.26 µM.

Take `CCOc1cc2c(cc1O)/C(=N\N)C[C@@H]1[C@@H]2CC[C@]2(C)[C@@H](O)CC[C@@H]12`: the EC50 is over 2 µM and the IC50 stood at 0.209 µM.

On to `O=C(Nc1nc2ccccc2[nH]1)C(=O)NC12CC3CC(CC(C3)C1)C2`, for which the result was inactive.

With `Cc1ccc(NC2=NCCO2)c2c1CCC2`, the EC50 is over 200 µM and the half-inhibitory concentration (IC50) was 33.9 µM.
